Where two headings read alike, the source gives them in different places.

This passage reports DC50 results from patent publication US12091411B2, “IRAK degraders and uses thereof” (Kymera Therapeutics, Inc., priority 2022, dated 2024).

This experiment addresses T1, IRAK4 (Homo sapiens, UniProt Q9NWZ3).
T1 construct: Degradation of IRAK4 in OCI-LY10 was quantitatively measured using Meso Scale Discovery technology; endogenous in cells; host or cells: OCI-LY10
T1 sequence (Q9NWZ3 1-460): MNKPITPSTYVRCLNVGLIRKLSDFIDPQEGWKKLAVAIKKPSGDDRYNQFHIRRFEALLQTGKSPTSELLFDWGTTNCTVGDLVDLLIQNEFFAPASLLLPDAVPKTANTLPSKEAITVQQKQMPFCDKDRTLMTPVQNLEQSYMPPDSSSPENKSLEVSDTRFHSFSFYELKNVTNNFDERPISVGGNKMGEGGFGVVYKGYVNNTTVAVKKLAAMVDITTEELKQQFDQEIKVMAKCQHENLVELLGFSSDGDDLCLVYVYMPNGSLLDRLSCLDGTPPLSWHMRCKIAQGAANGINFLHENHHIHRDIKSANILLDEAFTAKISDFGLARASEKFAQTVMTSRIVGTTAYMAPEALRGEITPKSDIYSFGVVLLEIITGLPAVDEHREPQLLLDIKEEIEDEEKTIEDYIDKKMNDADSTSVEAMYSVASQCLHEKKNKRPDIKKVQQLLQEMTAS
Nature of the experiment: IRAK4 MSD Degradation in OCI-LY10. The class given is cell-based. The following applies: OCI-LY10 cells, MSD. The method in brief:
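DC50, from a three-parameter logistic fit and reported as letter bins A (<0.01 μM), B, C, D (>0.2 μM or not tested), reflects IRAK4 loss measured by MSD electrochemiluminescence in OCI-LY10 lysates. Treatment: 8 doses, 1:3 steps, top 1 to 10 μM, 4 to 24 h, 37 °C.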

[1] abbreviates: 4 hrs incubation, read-out: IRAK4 degradation in OCI-LY10 at 4 hrs: DC50.
[2] abbreviates: 24 hrs incubation, read-out: IRAK4 degradation in OCI-LY10 at 24 hrs: DC50.

Regarding `CN(C[C@H]1CC[C@H](n2cc3cc(NC(=O)c4cccc(C(F)(F)F)n4)c(C(F)F)cc3n2)CC1)C1CCN(c2cccc3c2n(C)c(=O)n3C2CCC(=O)NC2=O)CC1F` (stereo partly drawn) [I-557], the DC50 (as a rule, the concentration at which degradation of the target reaches its halfway point) is, setting by setting: under setting [1], more than 200 nM; under setting [2], more than 200 nM.

Turning to `CN(C[C@H]1CC[C@H](n2cc3cc(NC(=O)c4cccc(C(F)(F)F)n4)c(C#N)cc3n2)CC1)C1CCN(c2cccc3c2n(C)c(=O)n3C2CCC(=O)NC2=O)CC1F` (stereo partly drawn) [I-558], the DC50 was more than 200 nM under setting [1] and more than 200 nM under setting [2].

For `CN(C[C@H]1CC[C@H](n2cc3cc(NC(=O)c4cccc(C(F)(F)F)n4)c(S(C)(=O)=O)cc3n2)CC1)C1CCN(c2cccc3c2n(C)c(=O)n3C2CCC(=O)NC2=O)CC1F` (stereo partly drawn) [I-559], the DC50 reads like this: under setting [1], more than 200 nM; under setting [2], more than 200 nM.

For `CN(C[C@H]1CC[C@H](n2cc3cc(NC(=O)c4cccc(C(F)(F)F)n4)c(S(C)(=N)=O)cc3n2)CC1)C1CCN(c2cccc3c2n(C)c(=O)n3C2CCC(=O)NC2=O)CC1F` (stereo partly drawn) [I-560], the DC50 is more than 200 nM under setting [1] and more than 200 nM under setting [2].

Take `CN(C[C@H]1CC[C@H](n2cc3cc(NC(=O)c4cccc(C(F)(F)F)n4)c([S+](C)[O-])cc3n2)CC1)C1CCN(c2cccc3c2n(C)c(=O)n3C2CCC(=O)NC2=O)CC1F` (stereo partly drawn) [I-561]: the DC50 by setting is: under setting [1], more than 200 nM; under setting [2], more than 200 nM.

For `COc1ccc2c(c1N1CCC(N(C)C[C@H]3CC[C@H](n4cc(NC(=O)c5cnn6cccnc56)c(C(F)F)n4)CC3)C(F)C1)n(C)c(=O)n2C1CCC(=O)NC1=O` (stereo partly drawn) [I-563], the DC50 under setting [1] was more than 200 nM and the DC50 under setting [2] was more than 200 nM.

For `Cn1c(=O)n(C2CCC(=O)NC2=O)c2cccc(N3CC(F)(F)C34CN(C[C@H]3CC[C@H](n5cc6cc(NC(=O)c7cccc(C(F)(F)F)n7)c(C#N)cc6n5)CC3)C4)c21` (stereo partly drawn) [I-564], the DC50 is, setting by setting: under setting [1], more than 200 nM; under setting [2], more than 200 nM.

Consider `Cn1c(=O)n(C2CCC(=O)NC2=O)c2cccc(N3CC4(C3)N(C[C@H]3CC[C@H](n5cc6cc(NC(=O)c7cccc(C(F)(F)F)n7)c(C#N)cc6n5)CC3)CC4(F)F)c21` (stereo partly drawn) [I-565], for which the DC50 is, setting by setting: under setting [1], more than 200 nM; under setting [2], more than 200 nM.

With `Cn1c(=O)n(C2CCC(=O)NC2=O)c2cccc(N3CCC(N4CC5(CCC(n6cc7cc(NC(=O)c8cccc(C(F)(F)F)n8)c(C#N)cc7n6)CC5)C4)C(F)(F)C3)c21` (stereo not drawn) [I-566], the DC50 is, setting by setting: under setting [1], more than 200 nM; under setting [2], more than 200 nM.

Turning to `Cn1c(=O)n(C2CCC(=O)NC2=O)c2cccc(N3CCC(F)(CN4CC5(CCC(n6cc7cc(NC(=O)c8cccc(C(F)(F)F)n8)c(C#N)cc7n6)CC5)C4)CC3)c21` (stereo not drawn) [I-567], the DC50 is, setting by setting: under setting [1], more than 200 nM; under setting [2], more than 200 nM.

Consider `Cn1c(=O)n(C2CCC(=O)NC2=O)c2ccc(C3CCN(C[C@H]4CC[C@H](n5cc6cc(NC(=O)c7cccc(C(F)(F)F)n7)c(C#N)cc6n5)CC4)CC3(F)F)cc21` (stereo partly drawn) [I-568], for which the half-maximal degradation concentration (DC50) under setting [1] is more than 200 nM and the DC50 under setting [2] is more than 200 nM.

Consider `Cn1c(=O)n(C2CCC(=O)NC2=O)c2ccc(C3CCN(C[C@H]4CC[C@H](n5cc6cc(NC(=O)c7cccc(C(F)(F)F)n7)c(C(F)F)cc6n5)CC4)CC3(F)F)cc21` (stereo partly drawn) [I-569], for which the DC50 under setting [1] is more than 200 nM and the DC50 under setting [2] was more than 200 nM.

As for `CN(C[C@H]1CC[C@H](n2cc(NC(=O)c3cnn4cccnc34)c(C(F)F)n2)CC1)C1CCN(c2ccc3c(c2)n(C)c(=O)n3C2CCC(=O)NC2=O)CC1(F)F` (stereo partly drawn) [I-570], the DC50 under setting [1] is more than 200 nM.

Consider `Cn1c(=O)n(C2CCC(=O)NC2=O)c2cccc([C@H]3C[C@H](COC4CCN(C[C@H]5CC[C@H](n6cc(NC(=O)c7cnn8ccc(N9C[C@H]%10C[C@@H]9CO%10)nc78)c(C(F)F)n6)CC5)CC4F)C3)c21` (stereo partly drawn) [I-571], for which the DC50 under setting [1] was more than 200 nM and the DC50 under setting [2] was more than 200 nM.

Turning to `Cn1c(=O)n(C2CCC(=O)NC2=O)c2cccc([C@H]3C[C@H](CN4CCN(C[C@H]5CC[C@H](n6cc(NC(=O)c7cnn8cccnc78)c(C(F)F)n6)CC5)CC4)C3)c21` (stereo partly drawn) [I-572], the DC50 is, setting by setting: under setting [1], more than 200 nM; under setting [2], more than 200 nM.

Turning to `Cn1c(=O)n(C2CCC(=O)NC2=O)c2cccc([C@H]3C[C@@H]3CN3CCN(C[C@H]4CC[C@H](n5cc(NC(=O)c6cnn7ccc(N8C[C@H]9CC8CO9)nc67)c(C(F)F)n5)CC4)CC3)c21` (stereo partly drawn) [I-573], the DC50 by setting is: under setting [1], more than 200 nM; under setting [2], more than 200 nM.

As for `Cn1c(=O)n(C2CCC(=O)NC2=O)c2cccc([C@H]3C[C@](F)(CN4CCN(C[C@H]5CC[C@H](n6cc(NC(=O)c7cnn8ccc(N9C[C@H]%10CC9CO%10)nc78)c(C(F)F)n6)CC5)CC4)C3)c21` (stereo partly drawn) [I-574], the DC50 under setting [1] is more than 200 nM and the DC50 under setting [2] is more than 200 nM.

`C[C@@H]([C@H]1C[C@H](c2cccc3c2n(C)c(=O)n3C2CCC(=O)NC2=O)C1)N1CCN(C[C@H]2CC[C@H](n3cc(NC(=O)c4cnn5ccc(N6C[C@H]7CC6CO7)nc45)c(C(F)F)n3)CC2)CC1` (stereo partly drawn) [I-575]: the DC50 runs as follows: under setting [1], more than 200 nM; under setting [2], more than 200 nM.

For the compound `Cn1c(=O)n(C2CCC(=O)NC2=O)c2cccc(C[C@H]3C[C@H](N4CCN(C[C@H]5CC[C@H](n6cc(NC(=O)c7cnn8ccc(N9C[C@H]%10CC9CO%10)nc78)c(C(F)F)n6)CC5)CC4)C3)c21` (stereo partly drawn) [I-576], the DC50 is, setting by setting: under setting [1], more than 200 nM; under setting [2], less than 10 nM.

For the compound `Cn1c(=O)n(C2CCC(=O)NC2=O)c2cccc(O[C@H]3C[C@H](N4CCN(C[C@H]5CC[C@H](n6cc(NC(=O)c7cnn8ccc(N9C[C@H]%10CC9CO%10)nc78)c(C(F)F)n6)CC5)CC4)C3)c21` (stereo partly drawn) [I-577], the DC50 was more than 200 nM under setting [1] and more than 200 nM under setting [2].

Take `CO[C@]1(CN2CCN(C[C@H]3CC[C@H](n4cc(NC(=O)c5cnn6ccc(N7C[C@H]8CC7CO8)nc56)c(C(F)F)n4)CC3)CC2)C[C@H](c2cccc3c2n(C)c(=O)n3C2CCC(=O)NC2=O)C1` (stereo partly drawn) [I-579]: the DC50 was more than 200 nM under setting [1] and more than 200 nM under setting [2].

For the compound `Cn1c(=O)n(C2CCC(=O)NC2=O)c2cccc([C@H]3C[C@](O)(CN4CCN(C[C@H]5CC[C@H](n6cc(NC(=O)c7cnn8ccc(N9C[C@H]%10CC9CO%10)nc78)c(C(F)F)n6)CC5)CC4)C3)c21` (stereo partly drawn) [I-580], the DC50 is more than 200 nM under setting [1] and less than 10 nM under setting [2].

Consider `Cn1c(=O)n(C2CCC(=O)NC2=O)c2cccc(N3CC(O[C@@H]4CCN(C[C@H]5CC[C@H](n6cc(NC(=O)c7cnn8ccc(N9C[C@H]%10C[C@@H]9CO%10)nc78)c(C(F)F)n6)CC5)C[C@@H]4F)C3)c21` (stereo partly drawn) [I-581], for which the DC50 reads like this: under setting [1], more than 200 nM; under setting [2], less than 10 nM.

With `Cn1c(=O)n(C2CCC(=O)NC2=O)c2cccc(N3CC(O[C@@H]4CCN(C[C@H]5CC[C@H](n6cc(NC(=O)c7cnn8ccc(N9C[C@H]%10C[C@@H]9CO%10)nc78)c(C(F)F)n6)CC5)C[C@H]4F)C3)c21` (stereo partly drawn) [I-582], the DC50 reads like this: under setting [1], more than 200 nM; under setting [2], more than 200 nM.

On to `Cn1c(=O)n(C2CCC(=O)NC2=O)c2cccc(N3CC(O[C@H]4CCN(C[C@H]5CC[C@H](n6cc(NC(=O)c7cnn8ccc(N9C[C@H]%10C[C@@H]9CO%10)nc78)c(C(F)F)n6)CC5)C[C@@H]4F)C3)c21` (stereo partly drawn) [I-583], for which the DC50 under setting [1] was more than 200 nM and the DC50 under setting [2] was more than 200 nM.

Consider `Cn1c(=O)n(C2CCC(=O)NC2=O)c2cccc(N3CC(O[C@H]4CCN(C[C@H]5CC[C@H](n6cc(NC(=O)c7cnn8ccc(N9C[C@H]%10C[C@@H]9CO%10)nc78)c(C(F)F)n6)CC5)C[C@H]4F)C3)c21` (stereo partly drawn) [I-584], for which the DC50 is, setting by setting: under setting [1], more than 200 nM; under setting [2], more than 200 nM.

Consider `Cn1c(=O)n(C2CCC(=O)NC2=O)c2cccc(N3CC(CO[C@@H]4CCN(C[C@H]5CC[C@H](n6cc(NC(=O)c7cnn8ccc(N9C[C@H]%10CC9CO%10)nc78)c(C(F)F)n6)CC5)C[C@@H]4F)C3)c21` (stereo partly drawn) [I-585], for which the DC50 is more than 200 nM under setting [1] and less than 10 nM under setting [2].

Regarding `Cn1c(=O)n(C2CCC(=O)NC2=O)c2cccc(N3CC(CO[C@@H]4CCN(C[C@H]5CC[C@H](n6cc(NC(=O)c7cnn8ccc(N9C[C@H]%10CC9CO%10)nc78)c(C(F)F)n6)CC5)C[C@H]4F)C3)c21` (stereo partly drawn) [I-586], the 50% degradation concentration (DC50) under setting [1] was more than 200 nM and the DC50 under setting [2] is less than 10 nM.

As to `Cn1c(=O)n(C2CCC(=O)NC2=O)c2cccc(N3CC(CO[C@H]4CCN(C[C@H]5CC[C@H](n6cc(NC(=O)c7cnn8ccc(N9C[C@H]%10CC9CO%10)nc78)c(C(F)F)n6)CC5)C[C@@H]4F)C3)c21` (stereo partly drawn) [I-587], the DC50 runs as follows: under setting [1], more than 200 nM; under setting [2], less than 10 nM.

On to `Cn1c(=O)n(C2CCC(=O)NC2=O)c2cccc(N3CC(CO[C@H]4CCN(C[C@H]5CC[C@H](n6cc(NC(=O)c7cnn8ccc(N9C[C@H]%10CC9CO%10)nc78)c(C(F)F)n6)CC5)C[C@H]4F)C3)c21` (stereo partly drawn) [I-588], for which the DC50 is more than 200 nM under setting [1] and less than 10 nM under setting [2].

Turning to `Cn1c(=O)n(C2CCC(=O)NC2=O)c2cccc(C#CCO[C@@H]3CCN(C[C@H]4CC[C@H](n5cc(NC(=O)c6cnn7ccc(N8CCS(=O)(=O)CC8)nc67)c(C(F)F)n5)CC4)C[C@@H]3F)c21` (stereo partly drawn) [I-589], the DC50 under setting [1] was more than 200 nM and the DC50 under setting [2] is more than 200 nM.

With `Cn1c(=O)n(C2CCC(=O)NC2=O)c2cccc(C#CCO[C@@H]3CCN(C[C@H]4CC[C@H](n5cc(NC(=O)c6cnn7ccc(N8CCS(=O)(=O)CC8)nc67)c(C(F)F)n5)CC4)C[C@H]3F)c21` (stereo partly drawn) [I-590], the DC50 by setting is: under setting [1], more than 200 nM; under setting [2], more than 200 nM.
